From patent US20260262643A1, “HERBICIDAL BENZOXAZINES” (FMC CORPORATION, priority 2022, published 2026)

Legend:
[1] = tested on: barnyardgrass; assay: Test C preemergence; assay type: in vivo, Echinochloa crusgalli
Procedure, shortened: (§1)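 Greenhouse herbicide screen, 10-day duration. Test chemicals in solvent/surfactant blend were sprayed onto soil at sowing (pre) or onto 2–10 cm seedlings at one to two leaves (post); injury scored visually against controls, 0 no effect to 100 complete control.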

[2] = tested on: blackgrass; assay: Test C preemergence; assay type: in vivo, Alopecurus myosuroides
Procedure, shortened: as §1

[3] = tested on: corn; assay: Test C preemergence; assay type: in vivo, Zea mays
Procedure, shortened: as §1

[4] = tested on: foxtail, giant; assay: Test C preemergence; assay type: in vivo, Setaria faberi
Procedure, shortened: as §1

[5] = tested on: kochia; assay: Test C preemergence; assay type: in vivo, Bassia scoparia
Procedure, shortened: as §1

[6] = tested on: oat, wild; assay: Test C preemergence; assay type: in vivo, Avena fatua
Procedure, shortened: as §1

[7] = tested on: pigweed, palmer; assay: Test C preemergence; assay type: in vivo, Amaranthus palmeri
Procedure, shortened: as §1

[8] = tested on: ragweed; assay: Test C preemergence; assay type: in vivo, Ambrosia artemisiifolia
Procedure, shortened: as §1

[9] = tested on: ryegrass, Italian; assay: Test C preemergence; assay type: in vivo, Lolium multiflorum
Procedure, shortened: as §1

[10] = tested on: soybean; assay: Test C preemergence; assay type: in vivo, Glycine max
Procedure, shortened: as §1

[11] = tested on: wheat; assay: Test C preemergence; assay type: in vivo, Triticum aestivum
Procedure, shortened: as §1

[12] = tested on: barnyardgrass; assay: Test C postemergence; assay type: in vivo, Echinochloa crusgalli; conditions: 10 days, 0 to 100 scale (0 no effect, 100 complete control)
Procedure, shortened: as §1

[13] = tested on: blackgrass; assay: Test C postemergence; assay type: in vivo, Alopecurus myosuroides; conditions: 10 days, 0 to 100 scale (0 no effect, 100 complete control)
Procedure, shortened: as §1

[14] = tested on: corn; assay: Test C postemergence; assay type: in vivo, Zea mays; conditions: 10 days, 0 to 100 scale (0 no effect, 100 complete control)
Procedure, shortened: as §1

[15] = tested on: foxtail, giant; assay: Test C postemergence; assay type: in vivo, Setaria faberi; conditions: 10 days, 0 to 100 scale (0 no effect, 100 complete control)
Procedure, shortened: as §1

[16] = tested on: kochia; assay: Test C postemergence; assay type: in vivo, Bassia scoparia; conditions: 10 days, 0 to 100 scale (0 no effect, 100 complete control)
Procedure, shortened: as §1

[17] = tested on: oat, wild; assay: Test C postemergence; assay type: in vivo, Avena fatua; conditions: 10 days, 0 to 100 scale (0 no effect, 100 complete control)
Procedure, shortened: as §1

[18] = tested on: pigweed, palmer; assay: Test C postemergence; assay type: in vivo, Amaranthus palmeri; conditions: 10 days, 0 to 100 scale (0 no effect, 100 complete control)
Procedure, shortened: as §1

[19] = tested on: ragweed; assay: Test C postemergence; assay type: in vivo, Ambrosia artemisiifolia; conditions: 10 days, 0 to 100 scale (0 no effect, 100 complete control)
Procedure, shortened: as §1

[20] = tested on: ryegrass, Italian; assay: Test C postemergence; assay type: in vivo, Lolium multiflorum; conditions: 10 days, 0 to 100 scale (0 no effect, 100 complete control)
Procedure, shortened: as §1

[21] = tested on: soybean; assay: Test C postemergence; assay type: in vivo, Glycine max; conditions: 10 days, 0 to 100 scale (0 no effect, 100 complete control)
Procedure, shortened: as §1

[22] = tested on: wheat; assay: Test C postemergence; assay type: in vivo, Triticum aestivum; conditions: 10 days, 0 to 100 scale (0 no effect, 100 complete control)
Procedure, shortened: as §1

[23] = tested on: galium; assay: Test C postemergence; assay type: in vivo, Galium aparine; conditions: 10 days, 0 to 100 scale (0 no effect, 100 complete control)
Procedure, shortened: as §1

[24] = tested on: horseweed; assay: Test C postemergence; assay type: in vivo, Erigeron canadensis; conditions: 10 days, 0 to 100 scale (0 no effect, 100 complete control)
Procedure, shortened: as §1

[25] = tested on: barnyardgrass; assay: Test D flooded paddy test; assay type: in vivo, Echinochloa crus-galli; conditions: 250 g ai/ha, applied to paddy water, visual rating after 13 to 14 days, scale 0 to 100 (0 no effect, 100 complete control)
Procedure, shortened: (§2)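 Visual ratings from 0, meaning no effect, to 100, meaning complete control, were assigned against untreated controls 13 to 14 days after compounds were added to the floodwater of pots kept 3 cm deep, with plants at the 2-leaf stage.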

[26] = tested on: ducksalad; assay: Test D flooded paddy test; assay type: in vivo, Heteranthera limosa; conditions: 250 g ai/ha, applied to paddy water, visual rating after 13 to 14 days, scale 0 to 100 (0 no effect, 100 complete control)
Procedure, shortened: as §2

[27] = tested on: rice; assay: Test D flooded paddy test; assay type: in vivo, Oryza sativa; conditions: 250 g ai/ha, applied to paddy water, visual rating after 13 to 14 days, scale 0 to 100 (0 no effect, 100 complete control)
Procedure, shortened: as §2

[28] = tested on: sedge, umbrella; assay: Test D flooded paddy test; assay type: in vivo, Cyperus difformis; conditions: 250 g ai/ha, applied to paddy water, visual rating after 13 to 14 days, scale 0 to 100 (0 no effect, 100 complete control)
Procedure, shortened: as §2

[29] = 500 g ai/ha, preemergence, 0 to 100 scale (0 no effect, 100 complete control)
[30] = Preemergence, 125 g ai/ha, 0 to 100 scale, 0 no effect, 100 complete control

Cc1ccc(-n2cncn2)cc1C(=O)N1CC(C(F)(F)F)Oc2c(Cl)cccc21 (stereo not shown) [Compound 346]
Barnyardgrass plant response rating [1, 29]: 100
Plant response rating, Barnyardgrass [1, 30]: 70
Blackgrass plant response rating [2, 29]: 90
Plant response rating, Blackgrass [2, 30]: 80
Corn plant response rating [3, 29]: 90
Plant response rating, Corn [3, 30]: 0
Foxtail, Giant plant response rating [4, 29]: 100
Plant response rating, Foxtail, Giant [4, 30]: 100
Kochia plant response rating [5, 29]: 80
Plant response rating, Kochia [5, 30]: 10
Oat, Wild plant response rating [6, 29]: 40
Plant response rating, Oat, Wild [6, 30]: 0
Pigweed, Palmer plant response rating [7, 29]: 100
Plant response rating, Pigweed, Palmer [7, 30]: 100
Ragweed plant response rating [8, 29]: 10
Plant response rating, Ragweed [8, 30]: 0
Ryegrass, Italian plant response rating [9, 29]: 90
Plant response rating, Ryegrass, Italian [9, 30]: 80
Soybean plant response rating [10, 29]: 100
Plant response rating, Soybean [10, 30]: 30
Wheat plant response rating [11, 29]: 80
Plant response rating, Wheat [11, 30]: 0
Plant response rating, Barnyardgrass ([12]; 500 g ai/ha, postemergence): 70
Plant response rating, Barnyardgrass ([12]; Postemergence, 125 g ai/ha): 40
Plant response rating, Blackgrass ([13]; 500 g ai/ha, postemergence): 90
Plant response rating, Blackgrass ([13]; Postemergence, 125 g ai/ha): 80
Plant response rating, Corn ([14]; 500 g ai/ha, postemergence): 90
Plant response rating, Corn ([14]; Postemergence, 125 g ai/ha): 10
Plant response rating, Foxtail, Giant ([15]; 500 g ai/ha, postemergence): 90
Plant response rating, Foxtail, Giant ([15]; Postemergence, 125 g ai/ha): 90
Plant response rating, Kochia ([16]; 500 g ai/ha, postemergence): 80
Plant response rating, Kochia ([16]; Postemergence, 125 g ai/ha): 70
Plant response rating, Oat, Wild ([17]; 500 g ai/ha, postemergence): 60
Plant response rating, Oat, Wild ([17]; Postemergence, 125 g ai/ha): 0
Plant response rating, Pigweed, Palmer ([18]; 500 g ai/ha, postemergence): 70
Plant response rating, Pigweed, Palmer ([18]; Postemergence, 125 g ai/ha): 40
Plant response rating, Ragweed ([19]; 500 g ai/ha, postemergence): 40
Plant response rating, Ragweed ([19]; Postemergence, 125 g ai/ha): 30
Plant response rating, Ryegrass, Italian ([20]; 500 g ai/ha, postemergence): 80
Plant response rating, Ryegrass, Italian ([20]; Postemergence, 125 g ai/ha): 70
Plant response rating, Soybean ([21]; 500 g ai/ha, postemergence): 100
Plant response rating, Soybean ([21]; Postemergence, 125 g ai/ha): 90
Plant response rating, Wheat ([22]; 500 g ai/ha, postemergence): 70
Plant response rating, Wheat ([22]; Postemergence, 125 g ai/ha): 20
Plant response rating, Galium ([23]; 500 g ai/ha, postemergence): 100
Plant response rating, Galium ([23]; Postemergence, 125 g ai/ha): 100
Plant response rating, Horseweed ([24]; 500 g ai/ha, postemergence): 0
Plant response rating, Horseweed ([24]; Postemergence, 125 g ai/ha): 0
Plant response rating, Barnyardgrass (Flood) [25]: 0
Plant response rating, Ducksalad (Flood) [26]: 65
Plant response rating, Rice (Flood) [27]: 0
Plant response rating, Sedge, Umbrella (Flood) [28]: 85
